Results on one compound are retold here after patent US8618082B2, “Lupeol anti-tumor agent and uses thereof” (Wisconsin Alumni Research Foundation, priority 2004, dated 2013).

“Also recorded” adds a separate entry of the source.

The test system of one data set is CD-1 mouse skin. In kind it is in vivo. The method, then: FIG. 8. Two stage carcinogenesis tumor data in CD-1 mice: Inhibitory effect of Lupeol on DMBA-initiated and TPA-promoted tumor formation in CD-1 mice: In each group, 20 animals were used. Tumorigenesis was initiated in the animals by a single topical application of 200 nmol DMBA in 0.2 ml vehicle on the dorsal shaved skin, and 1 week later, the tumor growth was promoted with twice-weekly applications of 3.2 nmol TPA in 0.2 ml vehicle. To assess its anti-skin tumor-promoting effect, Lupeol at a dose of 2 mg/animal was applied topically 30 min prior to each TPA application in different groups. Treatment with TPA alone or Lupeol plus TPA was repeated twice weekly up to the termination of the experiments at 28 weeks. Animals in all the groups were watched for any apparent signs of toxicity, such as weight loss or mortality during the entire period of study. Skin tumor formation was recorded weekly, and tumors larger than 1 mm in diameter were included in the cumulative number only if they persisted for 2 weeks or more. The tumor data is represented as the percentage of mice with tumors (a), the number of tumors per mouse (b) and the number of tumors per group (c). The data was analyzed by Wilcoxon rank sum test and χ^2 analysis.
Female CD-1 mice were used in DMBA- and TPA-induced, two-stage skin tumorigenesis protocol as described earlier (Katiyar et al., 1996). The dorsal side of the skin was shaved using electric clippers, and the mice with hair cycles in the resting phase were used for tumor studies. In each group, 20 animals were used. Tumorigenesis was initiated in the animals by a single topical application of 200 nmol DMBA in 0.2 ml vehicle on the dorsal shaved skin, and 1 week later, the tumor growth was promoted with twice-weekly applications of 3.2 nmol TPA in 0.2 ml vehicle. […] Treatment with TPA alone or Lupeol plus TPA was repeated twice weekly up to the termination of the experiments at 28 weeks. Animals in all the groups were watched for any apparent signs of toxicity, such as weight loss or mortality during the entire period of study. Skin tumor formation was recorded weekly, and tumors larger than 1 mm in diameter were included in the cumulative number only if they persisted for 2 weeks or more.
A two-tailed Student's t test was used to assess the statistical significance between the TPA treated and Lupeol+TPA treated groups. A p value<0.05 was considered statistically significant. In tumorigenesis experiments, the statistical significance of difference between TPA and Lupeol+TPA groups was evaluated by the Wilcoxon rank sum test and χ^2 analysis.

Data set [1] relates to Fas receptor, FADD and other death receptors in LNCaP cells. Briefly: Death receptor mediated apoptotic pathway in LNCaP cells (western blot). In kind it is cell-based, human. The method, then: FIG. 14 depicts effect of Lupeol treatment on death receptor mediated apoptotic pathway in LNCaP cells: Cells were treated with vehicle (DMSO+alcohol) only or specified concentrations of Lupeol for 48 h, harvested and total cell lysates were prepared. The expression of death receptors including Fas and death adaptor proteins including FADD were determined by western blot analysis. Equal loading was confirmed by stripping immunoblots and reprobing them for β-actin. The immunoblots shown here are representative of three independent experiments with similar results.
In general terms: A western blot detects proteins with antibodies after separation by electrophoresis.

The next data set deals with Fas receptor protein. Description: Fas receptor expression in LNCaP cells treated with Lupeol plus anti-Fas mAb (western blot). The format is cell-based, human. The note with it: anti-Fas mAb pretreated LNCaP cells treated with Lupeol. The protocol:
FIG. 16 depicts cells that were treated with vehicle (DMSO+alcohol) only or specified concentrations of Lupeol alone, anti-Fas mAb or with combination (Lupeol+anti-Fas mAb) for 48 h, harvested and total cell lysates were prepared. The expression of Fas receptor protein in total cell lysate was determined by western blot analysis. Equal loading was confirmed by stripping immunoblots and reprobing them for β-actin. The immunoblots shown here are representative of three independent experiments with similar results.

Data set [2] deals with Fas receptor in LNCaP cells. Briefly: Fas-siRNA silenced LNCaP cells: Fas expression and viability. In kind it is cell-based, human. Conditions: vs LNCaP cells with Fas receptor expression treated with Lupeol. The method, then:
FIG. 17 depicts effect of Lupeol treatment on the growth of CaP cells transfected with Fas-siRNA and on the expression of Fas receptor in Fas-silenced CaP cells: (A). Cells were treated with specified concentrations of Lupeol alone, anti-Fas mAb or non-sense siRNA (negative control), Fas-siRNA, combination (Lupeol+Fas-siRNA) and combination (anti-Fas mAb+Fas-siRNA). The expression of Fas receptor protein in total cell lysate was determined by western blot analysis. Equal loading was confirmed by stripping immunoblots and reprobing them for β-actin. The immunoblots shown here are representative of three independent experiments with similar results. (B). Cells were treated with specified concentrations of Lupeol alone, anti-Fas mAb or non-sense siRNA (negative control), Fas-siRNA, combination (Lupeol+Fas-siRNA) and combination (anti-Fas mAb+Fas-siRNA). The values represent percent viable cells where vehicle-treated cells were regarded as 100% viable. Data represents mean value of percent viable cells±S.E of three independent experiments.
To determine whether Lupeol induces apoptosis of LNCaP cells selectively through Fas receptor, we used siRNA technology. siRNA's have the ability to silence […] any specific protein. We designed siRNA against Fas receptor protein and treated LNCaP cell with them.

The next data set deals with AsPC-1 cells. Briefly: Viability of AsPC-1 cells, MTT assay. The note with it: Lupeol for 24-72 hours. In kind it is cell-based. The protocol:
FIG. 20 depicts effect of Lupeol on viability of AsPC-1 cells. The cells were treated with specified concentrations of Lupeol for 24, 48 and 72 h, and cell viability was determined by MTT assay.

For data set [3], the system named is I-κBα protein and p65-subunit of NFκB in AsPC-1 cells. Briefly: Phosphorylation of IκBα and NFκB p65 in AsPC-1 cells. The format is cell-based. The text has this: FIG. 24 depicts effect of Lupeol treatment on the phosphorylation of I-κBα protein and p65-subunit of NFκB transcriptional factor in AsPC-1 cells.
Data set [4] has as its system p38, Erk1/2, p21, Cyclin D-2 in AsPC-1 cells. Description: MAP kinase phosphorylation and p21, Cyclin D-2 expression in AsPC-1 cells. In kind it is cell-based. The source says: FIG. 25 depicts effect of Lupeol treatment on the phosphorylation of p38 and Erk1/2 in MAP kinase signaling and p21 and Cyclin D-2 protein expression in AsPC-1 cells.
Setting [5] is: Lupeol 2 mg/animal, 28 weeks, vs non-Lupeol treated group.

In the case of `C=C(C)[C@@H]1CC[C@]2(C)CC[C@]3(C)[C@H](CC[C@@H]4[C@@]5(C)CC[C@H](O)C(C)(C)[C@@H]5CC[C@]43C)[C@@H]12` [Lupeol, Lup-20(29)-en-3β-ol], the “percentage of mice with skin tumors” value in the data set with CD-1 mouse skin (Lupeol 2 mg/animal topical 30 min prior to each TPA, 28 weeks, non-Lupeol group 100%) was found to be 53%. Besides, the “total number of tumors per group” value in the data set with CD-1 mouse skin (Lupeol 2 mg/animal, 28 weeks, 20 animals, non-Lupeol group 125) is recorded as 33 tumors. Further, in the data set with CD-1 mouse skin (setting [5]), the “inhibition of number of tumors per mouse” value amounted to 74% and the “inhibition of total number of tumors” value is 74%. Further, the “number of tumors per mouse” value with CD-1 mouse skin (Lupeol 2 mg/animal, 28 weeks, non-Lupeol group 6.25) came out at 1.65 tumors per mouse. The “latency period of tumor formation” value in the data set on CD-1 mouse skin (Lupeol 2 mg/animal, p<0.05, χ2 test) was “significantly increased”. Moreover, in the data set with CD-1 mouse skin (Lupeol treatment for 28 weeks, data not shown), the body weight gain entry is reported as “did not significantly affect”. In addition, in the data set on CD-1 mouse skin (mouse, in vivo), the signs of toxicity result was “none of the treated mice exhibited any signs of toxicity”. Further, in data set [1], the “expression of cell death-inducing receptor ligands FAS-L, APO-3L and TRAIL” value was “no significant change”; the “expression/activation of other death receptors (TRADD, TNFR-1, APO-3, DR-4/5)” value is listed as “no change in the protein expression; also recorded: No other death receptor such as TNFR1, DR4/5 were activated”. Moreover, in data set [1] (48 h), the “expression of FADD protein” value is given as “increase in the expression of FADD protein; also recorded: induces the expression” and the “expression of FAS receptor protein” value is given as “significant increase; also recorded: induces the expression”. In addition, the Fas protein expression entry in the data set on Fas receptor protein is given as “highly increased”. The “cell death of Fas-silenced LNCaP cells” value in data set [2] is on record as “reduced cell death”. The “cell death of ASPC-1 cells” value in the data set with AsPC-1 cells is “highly significant dose dependent cell death”. Besides, in data set [3], the “phosphorylation of IkBα” value is “significant reduction” and the “phosphorylation of NFkB” value is reported as “reduction in the phosphorylation of NFkB”. Also, in data set [4], the Cyclin-D2 protein expression entry is given as “decrease in Cyclin-D2 protein expression”, the “expression of p-21” value is on record as “increase in the expression of p-21”, the “phosphorylation of Erk 1/2” value is listed as “increase in the phosphorylation of Erk 1/2” and the “phosphorylation of p38” value was “significant reduction”.
